Test results: PubChem BioAssay (NCI)
Values joined by “and” are separate entries in the source; they are usually repeats but may differ in a detail not shown here. Identical values can stand only once.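 Cultured in 96-well plates, cells were exposed to test compound for 48 hours across five concentrations. Abbreviation: GI50, concentration required for 50% inhibition of growth. TGI: total growth inhibition.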

Key:
Assay in all cases: NCI-60 cell line screen, 48 h
[1] = test system: OVCAR-4 ovarian
[2] = test system: MDA-MB-435
[3] = test system: NCI-H226 lung
[4] = test system: EKVX NSCLC
[5] = test system: SF-268 CNS
[6] = test system: M14 melanoma
[7] = test system: SNB-19 CNS
[8] = test system: A498 renal
[9] = test system: HT29 colon
[10] = test system: MALME-3M melanoma

SMILES | GI50 [1] | TGI [1] | GI50 [2] [µM] | TGI [2] | GI50 [3] | TGI [3] | GI50 [4] | TGI [4] | GI50 [5] [µM] | TGI [5] | GI50 [6] | TGI [6] | GI50 [7] | TGI [7] | GI50 [8] [µM] | TGI [8] | GI50 [9] | TGI [9] | GI50 [10] [µM] | TGI [10]
CN(C)c1ccc(N=C2C=CC(=[N+](C)C)C=C2)cc1 | 7.52 µM | 21.8 µM | 6.34 | 29.2 µM | 17 µM | > 100 µM | 3.58 µM | 40.7 µM | 11 | 68.1 µM | 17.7 µM | 81.4 µM | 6.45 µM | > 100 µM | 2.7 | > 100 µM | 3.74 µM | 22.9 µM | 8.97 | 38.6 µM
COc1cc(OC)c(/C=C\c2ccnc3ccccc23)c(OC)c1 |  | 16.5 µM |  | 1.78 µM |  | 16.8 µM |  | 17.7 µM |  | 22.8 µM |  | 15.2 µM |  | 18.2 µM |  | 9.87 µM |  | 11.8 µM |  | 16.5 µM
c1cc2[nH]ncc2cc1-c1nc2ccc3[nH]ncc3c2c2c1CCCC2 | 1.97 µM | 14.4 µM | 0.315 | 3.74 µM | 1.73 µM | 7.79 µM | 1.91 µM | 9.15 µM | 2.31 | 14 µM | 0.523 µM | 10.8 µM | 2.35 µM | 11 µM | 0.273 | 1.82 µM | 1.59 µM | 13.1 µM | 1.08 | 4.22 µM
Cc1ccc2ncnc(N(CC(C)C)CC(C)C)c2c1 | 19 µM | 52.6 µM | 18.5 | 34.7 µM | 15.2 µM | 34.8 µM |  |  | 16.2 | 37.7 µM | 14.8 µM | 30.8 µM | 20.5 µM | 42.9 µM | 13.5 | 28.2 µM |  |  | 16.8 | 31.7 µM
Nc1nc(OCc2cc(Br)cs2)c2[nH]cnc2n1 | 24.9 µM | > 100 µM | 29.9 | > 100 µM | 24.6 µM | > 100 µM | 24.7 µM | > 100 µM | 32.3 | > 100 µM | 26.7 µM | > 100 µM | 37.6 µM | > 100 µM | 11 | 48.3 µM | 28.9 µM | > 100 µM | 17.6 | 97.5 µM
CC1=CC(=C(c2ccc(N)cc2)c2ccc(N)cc2)C=CC1=N | 2.51 µM and 5.01 µM | 14.3 µM and > 55.2 µM and 71.6 µM | 0.969 | 10.2 µM and > 44.8 µM and 15.6 µM | 2.16 µM and 7.35 µM | 16.5 µM and 19.6 µM and 46.6 µM | 1.37 µM and 2.23 µM | 20 µM and 70.8 µM and 41.5 µM | 0.668 | 14.4 µM and 19.4 µM and 14.5 µM | 0.867 µM and 3.79 µM | 5.25 µM and 17.7 µM and 15.3 µM | 0.494 µM | 14.4 µM and 20.1 µM and 28.1 µM | 2.2 | > 27.4 µM and > 100 µM and 32.2 µM | 0.558 µM and 3.08 µM | 10.7 µM and 29.9 µM and 11.3 µM | 0.771 | 6.18 µM and 11.2 µM and 11.7 µM
Cc1ccccc1-n1ncc(C(=O)c2ccccc2)c1N | > 25 µM | > 25 µM | > 25 | > 25 µM | > 25 µM | > 25 µM |  |  | > 25 | > 25 µM | > 25 µM | > 25 µM | > 25 µM | > 25 µM | > 25 | > 25 µM | > 25 µM | > 25 µM | > 25 | > 25 µM
CC1(C)CCC2=C(O1)c1ccccc1C(=O)C2=O | 1.27 µM | 2.53 µM and 5.78 µM | 0.191 |  | 1.84 µM | 3.77 µM and 2.89 µM |  | 3.78 µM and 3.59 µM | 1.44 | 3.32 µM and 1.83 µM | 1.69 µM | 3.31 µM and 0.801 µM | 1.6 µM and 1.71 µM | 3.08 µM and 3.11 µM |  | 11.3 µM | 3.43 µM | > 100 µM | 1.51 | 2.84 µM and 0.974 µM
Cn1cc(C2=C(c3cn(C)c4c([N+](=O)[O-])cccc34)C(=O)NC2=O)c2ccccc21 | > 25 µM | > 25 µM | > 25 | > 25 µM | > 25 µM | > 25 µM |  |  | > 25 | > 25 µM | > 25 µM | > 25 µM | > 25 µM | > 25 µM | > 25 | > 25 µM | > 25 µM | > 25 µM | > 25 | > 25 µM
O=C1C(=O)c2c(nc3ccc(Br)cn23)-c2ccccc21 | 0.191 µM | 0.398 µM | 0.185 | 0.334 µM | 1.61 µM | 3.41 µM | 1.54 µM | 3.31 µM | 0.543 | 1.97 µM | 0.489 µM | 1.02 µM | 1.41 µM | 2.72 µM | 1.51 | 2.87 µM | 2.44 µM | 6.12 µM | 0.19 | 0.371 µM
COC(=O)[C@]12CC[C@@H](C)[C@H](C)[C@@H]1C1=CC[C@@H]3[C@@]4(C)C(C=O)=C[C@@](C)(COC(C)=O)C4=CC[C@@]3(C)[C@]1(C)CC2 | 4.06 µM | 18.3 µM | 4.28 | 16.4 µM | 6.28 µM | 22.8 µM | 4.13 µM | 16.1 µM | 4.38 | 17 µM | 5.27 µM | 22.4 µM | 5.25 µM | 25.6 µM | 10.8 | 24 µM | 3.17 µM | 11 µM | 3.74 | 15.5 µM
COc1ccc2c(CN3CCC(C(=O)O)CC3)cc3cc4c(cc3c2c1)OCO4 | 4.15 µM | > 100 µM | 2.66 | 7.42 µM | 2.03 µM | 4.64 µM | 3.69 µM | 20.6 µM | 3.67 | 25.4 µM | 2.11 µM | 4.94 µM | 3.35 µM | 22.6 µM | 1.79 | 3.33 µM | 2.33 µM | 13.8 µM | 1.58 | 3.45 µM
Clc1cccc(Cl)c1C1CSc2ccccc2N=C1c1ccccc1 (stereo not given) | 3.11 µM | 16 µM | 3.59 | 13.6 µM | 20.5 µM | 74.2 µM |  |  | 3.07 | 11.2 µM | 8.44 µM | 23.1 µM | 11.5 µM | 24.6 µM | 13.1 | 26.6 µM | 3.17 µM | 8.64 µM | 10.9 | 27.8 µM
COc1ccc(C(SCC(N)C(=O)O)(c2ccccc2)c2ccccc2)cc1 (stereo not given) | 29.7 µM | > 100 µM | 0.0306 |  | 11.8 µM | > 71.2 µM | 0.436 µM | > 100 µM | 0.0877 | 71.5 µM | 0.0309 µM | 0.126 µM | 0.0594 µM | > 100 µM | 20.8 | > 84.6 µM | 0.429 µM | > 100 µM | > 43 | > 100 µM
NC(=O)c1ccc(NN=O)nc1 |  | > 100 µM | > 100 | > 100 µM |  | > 100 µM |  | > 100 µM |  | > 100 µM |  | > 100 µM |  | > 100 µM |  | > 100 µM |  | > 100 µM |  | > 100 µM
CN(C)CCNC(=O)C(C)(C)Oc1ccc(C(=O)c2ccc(Cl)cc2)cc1Cl |  | 28 µM |  | 17.2 µM |  | 29 µM |  | 23.9 µM |  | 28.7 µM | 1.82 µM | 3.67 µM and 5.99 µM |  | 26 µM |  | 30.7 µM |  | 8.18 µM and 9.21 µM | 3.9 | 11.1 µM
CN(Cc1cc(Br)cc(Br)c1O)Cc1cc(Br)cc(Br)c1O | 1.79 µM | 18.9 µM | 3.79 | 22.6 µM | 4.75 µM | 19.8 µM | 3.03 µM | 20.2 µM | 2.87 | 21.1 µM | 1.69 µM | 15.6 µM | 4.86 µM | 36 µM | 4.08 | 18.7 µM | 6.23 µM | 19.9 µM | 3.51 | 22 µM
O=CNc1ncn[nH]1 |  | > 100 µM |  | > 100 µM |  | > 100 µM |  | > 100 µM |  | > 100 µM |  | > 100 µM |  | > 100 µM |  | > 100 µM |  | > 100 µM |  | > 100 µM
O=C1Nc2c(C(F)(F)F)cccc2[C@@]1(c1ccc(O)cc1)c1ccc(OC(F)(F)F)cc1 | < 0.01 µM | < 0.01 µM | 7.92 | 21.9 µM | 0.0108 µM | 0.0273 µM | 0.0134 µM | 0.0351 µM | 0.327 | 17.5 µM | 0.0537 µM | 14.1 µM | 0.0285 µM | 0.0974 µM | < 0.0148 | 0.0337 µM | 0.0177 µM | 0.0435 µM | 12.4 | 25 µM
CCCCCCCCCCCCCC1=NCCN1CCO | 7.23 µM | 39.8 µM | 2.97 | 9.07 µM | 17.5 µM | 41.2 µM | 8.35 µM | 28.4 µM | 2.83 | 8.12 µM | 3.68 µM | 10.9 µM | 9.59 µM | 26.8 µM | 2.75 | 14.6 µM | 2.81 µM | > 28.6 µM | 12.7 | 30.5 µM
Cc1ccc(-c2cc3c(SCC(=O)Nc4cc(C(F)(F)F)ccc4Cl)nccn3n2)cc1 | 2.86 µM | > 100 µM | > 100 | > 100 µM | > 100 µM | > 100 µM |  |  | 79.4 | > 100 µM | > 100 µM | > 100 µM | 30.9 µM | > 100 µM | > 100 | > 100 µM |  |  | > 100 | > 100 µM
